In PMC8783508, “A novel D-amino acid peptide with therapeutic potential (ISAD1) inhibits aggregation of neurotoxic disease-relevant mutant Tau and prevents Tau toxicity in vitro” (Alzheimer's Research & Therapy, 2022):
Non-standard residues stand in square brackets, D forms with d. Residues, ends and D or L forms follow the SMILES beside them.

How the values were obtained:
[1] = tested on: N2a cells expressing Tau^RDΔK; assay: Uptake of FAM-labeled D-peptides by confocal microscopy; format: cell-based; conditions: 25 μM FAM-labeled peptide, 24 h, fixed cells
Method: In order to become potentially suitable for therapeutic development, the D-peptides should be internalized by neurons. To test this, 25 μM FAM-labeled ISAD1 or its inversed form was added to cells that express pro-aggregant mutant Tau^RDΔK for 24 h followed by cell fixation.
Fig. 7 Uptake of fluorescence-labeled D-peptides analyzed by confocal microscopy. 25 μM FAM-labeled peptides (ISAD1 and ISArev) were incubated with N2a cells expressing Tau^RDΔK for 24 h. The uptake of D-peptides was analyzed by confocal microscopy. As shown in the representative images, the peptides are mainly localized in the cytoplasm (A1, B1 Draq5 shown as red; A2 ISAD1-FAM, B2 ISAD1rev-FAM; A3, B3 merged images)

N2a-Tau^RDΔK cells [2] = assay: LDH release with the peptides alone; format: cell-based; conditions: 25, 50, 100, 250 μM peptide, 24 h, n = 3
Method: N2a cells expressing Tau^RDΔK were plated on poly D-lysine-coated 96-well plates with a density of 25,000 cells/well. At 70 to 80% confluence, the cells were treated for 24 h with various concentrations of D-peptides (25, 50, 100, and 250 μM) or Tau^RDΔK (10 μM final concentration) in the presence of ISAD1 and ISAD1rev (100 μM final concentration). The ability of D-peptides to neutralize the toxicity of Tau^RDΔK oligomers/fibrils was investigated by measuring the amount of released LDH (Roche Diagnostics, Mannheim, Germany). Therefore, 50 μL of each well was transferred to a fresh 96-well plate and 50 μL of reagent was added followed by a 30-min incubation period at RT. Finally, 50 μL of stop solution (1 N HCl) was added and absorbance was recorded at 492 nm (TECAN spectrofluorometer, Männedorf, Switzerland). Absorbance values were corrected by background values and the percentage of LDH release was calculated.

N2a-Tau^RDΔK cells [3] = assay: MTT cytotoxicity of the peptides alone; format: cell-based; conditions: 25, 50, 100, 250 μM peptide, 24 h, n = 3
Method: Cell viability was analyzed in accordance with the manufacturer’s protocol (Roche Diagnostics, Mannheim, Germany; cell proliferation kit II (MTT)). This assay is based on the cleavage of the yellow tetrazolium salt MTT into purple formazan dye by metabolic active cells. The color changes only in viable cells and can be directly quantified using a scanning multiwell spectrophotometer. In all experiments, the cells were grown as described previously. The cells (25,000 cells/well or 80% confluence) were plated on poly D-lysine-coated 96-well plates (Greiner Bio-One GmbH, Frickenhausen, Germany) for stronger attachment from overnight to 24 h at 37 °C. Fibrillized Tau^RDΔK was generated by incubating 200 μM Tau^RDΔK in BES buffer at 37 °C for 24 h in the presence of 2 mM D-peptides (Tau^RDΔK:peptide = 1:10). Successful fibrillization was verified using ThS (5 μM Tau^RDΔK, 10 μM ThS) measurement. The aggregated Tau^RDΔK (10 μM final concentration), Tau^RDΔK (10 μM) + peptide (100 μM) samples (ISAD1 and ISAD1rev), buffer only (negative control, set to 100% cell viability), and TritonX-100 (2%, cytotoxic agent, positive control) were incubated on N2a-Tau^RDΔK cells (100 μl solution) for another 24 h. The cell viability was measured in accordance with the manufacturer’s protocol.
A MTT-based cytotoxicity assay in the presence of ISAD1 and ISAD1rev peptides. […]

Tau^FL [4] = target: T1, Tau^FL (Homo sapiens, UniProt P10636); assay: ELISA of FAM-labeled peptide binding to Tau^FL; conditions: FAM-labelled peptide 0.1 – 200 µM, Tau^FL 5 µg/ml, n = 3
T1 construct: Tau^FL Full-length human Tau (441 AA); made in house
Method: A 96-well microtiter plate (Greiner Bio-One GmbH, Frickenhausen, Germany) was coated with 5 μg/ml Tau^FL or fibrils in coating buffer for incubation overnight at 4 °C. For investigation of the binding properties to the hexapeptide, 5 μM PHF6 was coated overnight. After three times washing with 300 μl phosphate-buffered saline with Tween20 (PBST: PBS with 0.1 % [v/v] Tween20), the plate was blocked with 3 % [w/v] BSA in PBS for 1 h at RT, followed by further washing steps. […] The plate was washed three times with PBST before 100 μl sheep anti-fluorescein isothiocyanate (FITC) HRP-conjugate (1:5000 dilution in PBST; AbD Serotec, Puchheim, Germany) was added and incubated for 1 h at RT with gentle agitation. Again, the plate was washed for three times, followed by addition of the TMB substrate. The reaction was stopped with 20 % [v/v] H2SO4 and absorbance was measured at 450 nm.

Tau^FL [5] = target: T1, Tau^FL; assay: Fibrillization of Tau^FL monitored by ThT assay; format: biochemical; set-up: key to Inhibition of Tau^FL aggregation: (+/-) indicates comparably low inhibition of Tau^FL fibrillization; (-) indicates that the peptide showed no effect on fibril formation; conditions: L-peptides
Method: Tau aggregation assays were performed under reducing conditions. Before the addition of heparin and peptides, a final concentration of 1 mM dithiothreitol (DTT) was added to the Tau protein solution and heated at 95 °C for 10 min. […] Final concentration of 10 μM ThT was used for monitoring fibrillization. In case of the two hexapeptides, 5 μM PHF6 and 5 μM PHF6*, respectively, without addition of the aggregation inducer heparin (16000 Da) were used for monitoring the fibrillization process. The assays were performed with 50-μl sample volume per well in a 96-well half area microtiter plate (Greiner Bio-One GmbH, Frickenhausen, Germany). The fibrillization of Tau^FL was monitored by ThT, and the relative fluorescence intensity of ThT was read out at 440 excitation/521 emission nm in a BMG microplate reader (BMG Labtech, Ortenberg, Germany).

Tau = conditions: PHF6 addressing peptide; read-out: Inhibition of fibrillization of Tau (compared with the IC50 of ISAD1); cited from earlier work
Method: Aggregation of Tau is the primary hallmark for the disease pathology in AD and other tauopathies. A significant inhibition of the aggregation by therapeutic molecules is considered beneficial. Our novel peptide ISAD1 inhibited the fibrillization of Tau^FL and pro-aggregant Tau^RDΔK (IC50 of ~3 μM) in concentrations which are typical for peptide inhibitors.

T1 sequence (P10636 1-441 isoform P10636-8): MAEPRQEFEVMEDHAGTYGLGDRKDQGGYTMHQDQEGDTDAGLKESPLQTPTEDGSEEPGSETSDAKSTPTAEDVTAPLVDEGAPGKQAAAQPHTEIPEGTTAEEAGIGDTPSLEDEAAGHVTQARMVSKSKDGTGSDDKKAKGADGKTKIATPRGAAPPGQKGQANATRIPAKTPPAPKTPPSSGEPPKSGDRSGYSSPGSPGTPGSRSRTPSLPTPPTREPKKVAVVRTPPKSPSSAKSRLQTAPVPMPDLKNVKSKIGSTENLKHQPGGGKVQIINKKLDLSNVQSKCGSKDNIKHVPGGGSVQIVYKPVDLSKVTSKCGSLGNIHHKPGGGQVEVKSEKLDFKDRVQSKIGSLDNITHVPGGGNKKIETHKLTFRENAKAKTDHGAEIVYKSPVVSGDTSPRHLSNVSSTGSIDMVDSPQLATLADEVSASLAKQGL

## CC(C)C[C@@H](NC(=O)[C@@H](CCCCN)NC(=O)[C@@H](Cc1ccccc1)NC(=O)[C@H](NC(=O)[C@H](N)CO)C(C)C)C(=O)N[C@H](CO)C(=O)N[C@H](CC(C)C)C(=O)N[C@@H](C(=O)N[C@H](CC(=O)O)C(=O)N[C@H](C)C(=O)N[C@H](C)C(=O)N[C@H](CO)C(=O)O)[C@H](C)O [ISAD1] (H-[dS][dV][dF][dK][dL][dS][dL][dT][dD][dA][dA][dS]-OH)
[1]
  Intracellular localisation: accumulated in the cytosol but were excluded from the nucleus
  Uptake by cells: almost all cells took up the D-peptides
N2a-Tau^RDΔK cells [2]
  Cytotoxicity, LDH release: do not induce toxic effects
N2a-Tau^RDΔK cells [3]
  Cytotoxicity, MTT: do not induce toxic effects

## SASVTSKFDALL [ISAL1sam, scrambled L-amino acid variant of ISAL1, control peptide]
Tau^FL [4]
  Binding to Tau^FL in ELISA, in words: no significant binding
Tau^FL [5]; ThT assay
  Inhibition of Tau^FL fibrillization, in words: did not inhibit
Tau^FL [5]; ThT fibrillization assay
  Inhibition of Tau^FL aggregation: -

## TLKIVW
Tau
  IC50: 54.1 µM
